± gives the standard deviation of the averaged measurements.
Assay: TIMS collisional cross section (CCS, N2) of the lipid ion; higher = larger ion cross section
Details: ionization mode: negative, one isomer drawn
Description: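 Lipid extracts of human plasma (NIST SRM 1950), mouse liver or HeLa cells were separated by nanoflow C18 LC (30 min gradient) and analysed by TIMS-PASEF on a timsTOF Pro. Ion mobility was calibrated with the Agilent tuning mix (negative mode ions) and converted to collisional cross sections (Mason–Schamp, N2).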

[1] = sample type: Human plasma, ion (formula + adduct): [C46H84NO7P-CH3] 1-
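Further: lipids from MTBE extraction, five replicate injections per sample, 100 ms TIMS ramp spanning 0.6–1.95 Vs/cm², lipid identity assigned from PASEF MS/MS spectra.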

SMILES: CC/C=C\C/C=C\C/C=C\C/C=C\CCCCCCC(=O)O[C@H](COCCCCCCCC/C=C\CCCCCC)COP(=O)([O-])OCC[N+](C)(C)C [PC O- 16:1_20:4]
- TIMS collisional cross section (sample type: Human plasma, ion (formula + adduct): [C44H80NO7P+HCOO] 1-): 292.2 Å²

SMILES: CCCCCCCCCCCCCCCCCCOC[C@H](COP(=O)([O-])OCC[N+](C)(C)C)OC(=O)CCCCCCCCCCCCCCC [PC O- 18:0@_16:0]
- TIMS collisional cross section (sample type: Human plasma, ion (formula + adduct): [C42H86NO7P+HCOO] 1-): 293.5 Å²

SMILES: CCCCC/C=C\C/C=C\CCCCCCCC(=O)O[C@H](COCCCCCCCCCCCCCCCCCC)COP(=O)([O-])OCC[N+](C)(C)C [PC O- 18:0@_18:2]
- TIMS collisional cross section (sample type: Mouse Liver, ion (formula + adduct): [C44H86NO7P-CH3] 1-): 276.8 Å²

SMILES: CCCCC/C=C\C/C=C\C/C=C\C/C=C\CCCC(=O)O[C@H](COCCCCCCCCCCCCCCCCCC)COP(=O)([O-])OCC[N+](C)(C)C [PC O- 18:0@_20:4]
- TIMS collisional cross section (sample type: Human plasma, ion (formula + adduct): [C46H86NO7P+HCOO] 1-): 299 Å²

SMILES: CC/C=C\C/C=C\C/C=C\C/C=C\C/C=C\C/C=C\CCC(=O)O[C@H](COCCCCCCCCCCCCCCCCCC)COP(=O)([O-])OCC[N+](C)(C)C [PC O- 18:0@_22:6]
- TIMS collisional cross section (sample type: Human plasma, ion (formula + adduct): [C48H86NO7P+HCOO] 1-): 303.2 Å²

SMILES: CCCCCCCC/C=C\CCCCCCCCOC[C@H](COP(=O)([O-])OCC[N+](C)(C)C)OC(=O)CCCCCCCCCCCCCCC [PC O- 18:1@_16:0]
- TIMS collisional cross section (sample type: Human plasma, ion (formula + adduct): [C42H84NO7P+HCOO] 1-): 291.1 Å²

SMILES: CCCCC/C=C\C/C=C\C/C=C\C/C=C\CCCC(=O)O[C@H](COCCCCCCCC/C=C\CCCCCCCC)COP(=O)([O-])OCC[N+](C)(C)C [PC O- 18:1@_20:4]
- TIMS collisional cross section (sample type: Human plasma, ion (formula + adduct): [C46H84NO7P+HCOO] 1-): 297.5 ± 0.42 Å²
- TIMS collisional cross section [1]: 282.5 Å²
- TIMS collisional cross section (sample type: Mouse Liver, ion (formula + adduct): [C46H84NO7P+HCOO] 1-): 296.1 Å²
- TIMS collisional cross section (sample type: Mouse Liver, ion (formula + adduct): [C46H84NO7P-CH3] 1-): 282.5 Å²

SMILES: CC/C=C\C/C=C\C/C=C\C/C=C\CCCCCCC(=O)O[C@H](COCCCCCCCCCC/C=C\CCCCCCCC)COP(=O)([O-])OCC[N+](C)(C)C [PC O- 20:1@_20:4]
- TIMS collisional cross section (sample type: Human plasma, ion (formula + adduct): [C48H88NO7P+HCOO] 1-): 302.3 Å²

SMILES: CCCCCCCC/C=C\CCCCCCCC(=O)O[C@H](CO/C=C\CCCCCCCCCCCC)COP(=O)([O-])OCC[N+](C)(C)C [PC P- 14:0@_18:1]
- TIMS collisional cross section (sample type: Human plasma, ion (formula + adduct): [C40H78NO7P-CH3] 1-): 267.3 Å²

SMILES: CCCCCC/C=C\CCCCCCCC(=O)O[C@H](CO/C=C\CCCCCCCCCCCCCC)COP(=O)([O-])OCC[N+](C)(C)C [PC P- 16:0@_16:1]
- TIMS collisional cross section (sample type: Mouse Liver, ion (formula + adduct): [C40H78NO7P+OAcO] 1-): 283.6 Å²

SMILES: CC/C=C\C/C=C\C/C=C\C/C=C\C/C=C\CCCC(=O)O[C@H](CO/C=C\CCCCCCCCCCCCCC)COP(=O)([O-])OCC[N+](C)(C)C [PC P- 16:0@_20:5]
- TIMS collisional cross section (sample type: Human plasma, ion (formula + adduct): [C44H78NO7P+HCOO] 1-): 292.2 Å²
- TIMS collisional cross section (sample type: Human plasma, ion (formula + adduct): [C44H78NO7P-CH3] 1-): 275.1 Å²

SMILES: CCCCC/C=C\C/C=C\C/C=C\C/C=C\CCCCCC(=O)O[C@H](CO/C=C\CCCCCCCCCCCCCC)COP(=O)([O-])OCC[N+](C)(C)C [PC P- 16:0@_22:4]
- TIMS collisional cross section [1]: 282.5 Å²

SMILES: CC/C=C\C/C=C\C/C=C\C/C=C\C/C=C\C/C=C\CCC(=O)O[C@H](CO/C=C\CCCCCCCCCCCCCC)COP(=O)([O-])OCC[N+](C)(C)C [PC P- 16:0@_22:6]
- TIMS collisional cross section (sample type: Human plasma, ion (formula + adduct): [C46H80NO7P+HCOO] 1-): 296.7 Å²
- TIMS collisional cross section (sample type: Human plasma, ion (formula + adduct): [C46H80NO7P-CH3] 1-): 280.2 Å²
- TIMS collisional cross section (sample type: Mouse Liver, ion (formula + adduct): [C46H80NO7P-CH3] 1-): 279.6 Å²

SMILES: CCCCCCCCCCCCCC/C=C\OC[C@H](COP(=O)([O-])OCC[N+](C)(C)C)OC(=O)CCCCCCCCCCCCCCC [PC P- 16:0_16:0]
- TIMS collisional cross section (sample type: Human plasma, ion (formula + adduct): [C40H80NO7P+HCOO] 1-): 287.8 Å²
- TIMS collisional cross section (sample type: Mouse Liver, ion (formula + adduct): [C40H80NO7P-CH3] 1-): 267.55 ± 2 Å²

SMILES: CC/C=C\C/C=C\C/C=C\C/C=C\C/C=C\CCCC(=O)O[C@H](CO/C=C\CCCCCCCCCCCCCCCC)COP(=O)([O-])OCC[N+](C)(C)C [PC P- 18:0@_20:5]
- TIMS collisional cross section (sample type: Human plasma, ion (formula + adduct): [C46H82NO7P+HCOO] 1-): 296.1 Å²

SMILES: CC/C=C\C/C=C\C/C=C\C/C=C\C/C=C\C/C=C\CCC(=O)O[C@H](CO/C=C\CCCCCCCCCCCCCCCC)COP(=O)([O-])OCC[N+](C)(C)C [PC P- 18:0@_22:6]
- TIMS collisional cross section (sample type: Mouse Liver, ion (formula + adduct): [C48H84NO7P-CH3] 1-): 285.8 Å²

SMILES: CCCCC/C=C\C/C=C\CCCCCCCC(=O)O[C@H](CO/C=C\CCCCCCCCCCCCCCCCCC)COP(=O)([O-])OCC[N+](C)(C)C [PC P- 20:0@_18:2]
- TIMS collisional cross section (sample type: Human plasma, ion (formula + adduct): [C46H88NO7P-CH3] 1-): 285.4 Å²

SMILES: CC/C=C\C/C=C\C/C=C\C/C=C\C/C=C\C/C=C\CCC(=O)O[C@H](COC(=O)CCCCCCCCCCCCCC)COP(=O)(O)OCCN [PE 15:0_22:6]
- TIMS collisional cross section (sample type: Mouse Liver, ion (formula + adduct): [C42H72NO8P-H] 1-): 271.6 Å²

SMILES: CC/C=C\C/C=C\C/C=C\C/C=C\C/C=C\C/C=C\CCC(=O)OC(COC(=O)CCCCCCCCCCCCCCC)COP(=O)(O)OCCN (stereo not drawn) [PE 16:0@_22:6]
- TIMS collisional cross section (sample type: Human plasma, ion (formula + adduct): [C43H74NO8P-H] 1-): 275 Å²

SMILES: CCCCCCCCCCCCCCCC(=O)OCC(COP(=O)(O)OCCN)OC(=O)CCCCCCCCCCCCCCC (stereo not drawn) [PE 16:0_16:0]
- TIMS collisional cross section (sample type: Mouse Liver, ion (formula + adduct): [C37H74NO8P-H] 1-): 263.3 Å²

SMILES: CCCCCCCC/C=C\CCCCCCCC(=O)OC(COC(=O)CCCCCCCCCCCCCCC)COP(=O)(O)OCCN (stereo not drawn) [PE 16:0_18:1]
- TIMS collisional cross section (sample type: Human plasma, ion (formula + adduct): [C39H76NO8P-H] 1-): 268.4 Å²
- TIMS collisional cross section (sample type: Mouse Liver, ion (formula + adduct): [C39H76NO8P-H] 1-): 268.4 Å²

SMILES: CCCCC/C=C\C/C=C\CCCCCCCC(=O)OC(COC(=O)CCCCCCCCCCCCCCC)COP(=O)(O)OCCN (stereo not drawn) [PE 16:0_18:2]
- TIMS collisional cross section (sample type: Human plasma, ion (formula + adduct): [C39H74NO8P-H] 1-): 266.6 Å²
- TIMS collisional cross section (sample type: Mouse Liver, ion (formula + adduct): [C39H74NO8P-H] 1-): 266.6 Å²

SMILES: CC/C=C\C/C=C\C/C=C\CCCCCCCC(=O)O[C@H](COC(=O)CCCCCCCCCCCCCCC)COP(=O)(O)OCCN [PE 16:0_18:3]
- TIMS collisional cross section (sample type: Mouse Liver, ion (formula + adduct): [C39H72NO8P-H] 1-): 264.9 Å²

SMILES: CCCCCCCCC/C=C\CCCCCCCC(=O)O[C@H](COC(=O)CCCCCCCCCCCCCCC)COP(=O)(O)OCCN [PE 16:0_19:1]
- TIMS collisional cross section (sample type: Mouse Liver, ion (formula + adduct): [C40H78NO8P-H] 1-): 271.2 Å²

SMILES: CCCCCCCC/C=C\CCCCCCCCCC(=O)O[C@H](COC(=O)CCCCCCCCCCCCCCC)COP(=O)(O)OCCN [PE 16:0_20:1]
- TIMS collisional cross section (sample type: Mouse Liver, ion (formula + adduct): [C41H80NO8P-H] 1-): 275.2 Å²

SMILES: CCCCC/C=C\C/C=C\C/C=C\C/C=C\CCCC(=O)O[C@H](COC(=O)CCCCCCCCCCCCCCC)COP(=O)(O)OCCN [PE 16:0_20:4]
- TIMS collisional cross section (sample type: Mouse Liver, ion (formula + adduct): [C41H74NO8P-H] 1-): 270.7 ± 0.46 Å²

SMILES: CCCCC/C=C\C/C=C\C/C=C\C/C=C\CCCCCC(=O)O[C@H](COC(=O)CCCCCCCCCCCCCCC)COP(=O)(O)OCCN [PE 16:0_22:4]
- TIMS collisional cross section (sample type: Human plasma, ion (formula + adduct): [C43H78NO8P-H] 1-): 276.8 Å²

SMILES: CC/C=C\C/C=C\C/C=C\C/C=C\C/C=C\C/C=C\CCC(=O)OC(COC(=O)CCCCCCCCCCCCCCC)COP(=O)(O)OCCN (stereo not drawn) [PE 16:0_22:6]
- TIMS collisional cross section (sample type: Mouse Liver, ion (formula + adduct): [C43H74NO8P-H] 1-): 274.62 ± 0.25 Å²

SMILES: CCCCCC/C=C\CCCCCCCC(=O)OC[C@H](COP(=O)(O)OCCN)OC(=O)CCCCCCCCCCCCCCC [PE 16:1_16:0]
- TIMS collisional cross section (sample type: Human plasma, ion (formula + adduct): [C37H72NO8P-H] 1-): 261.6 Å²
- TIMS collisional cross section (sample type: Mouse Liver, ion (formula + adduct): [C37H72NO8P-H] 1-): 261.6 Å²

SMILES: CCCCCC/C=C\CCCCCCCC(=O)OCC(COP(=O)(O)OCCN)OC(=O)CCCCCCC/C=C\CCCCCC (stereo not drawn) [PE 16:1_16:1]
- TIMS collisional cross section (sample type: Mouse Liver, ion (formula + adduct): [C37H70NO8P-H] 1-): 259.3 Å²

SMILES: CCCCCC/C=C\CCCCCCCC(=O)OC[C@H](COP(=O)(O)OCCN)OC(=O)CCCCCCC/C=C\CCCCCCC [PE 16:1_17:1]
- TIMS collisional cross section (sample type: Mouse Liver, ion (formula + adduct): [C38H72NO8P-H] 1-): 263.2 Å²

SMILES: CC/C=C\C/C=C\C/C=C\C/C=C\C/C=C\CCCC(=O)O[C@H](COC(=O)CCCCCCC/C=C\CCCCCC)COP(=O)(O)OCCN [PE 16:1_20:5]
- TIMS collisional cross section (sample type: Mouse Liver, ion (formula + adduct): [C41H70NO8P-H] 1-): 267.1 Å²

SMILES: CCCCC/C=C\C/C=C\CCCCCCCC(=O)O[C@H](COC(=O)CCCCCCCCCCCCCCCC)COP(=O)(O)OCCN [PE 17:0_18:2]
- TIMS collisional cross section (sample type: Mouse Liver, ion (formula + adduct): [C40H76NO8P-H] 1-): 269.4 Å²
